Patent US4285940A, “Cephalosporin derivatives, and antibacterial drugs comprising said derivatives” (Eisai Co., Ltd., priority 1979, dated 1981)

Legend:
[1] = system: Staphylococcus aureus 209P; assay: MIC by standard agar dilution method of the Japan Society of Chemotherapy; assay type: cell-based; conditions: Mueller Hinton agar, 18 hours at 37° C., Examples 1, 2, 4 as sodium salts, Example 5 as free acid
Procedure: (§1) Minimal inhibitory concentration (MIC) was determined by the standard agar dilution method of the Japan Society of Chemotherapy.
(§2) The compounds described in Examples 1, 2 and 4 were dissolved in sterilized water; the compound described in Example 5 was dissolved in acetone-water (1:1); and the control compound, cephaloglycin, was dissolved in a 3% sodium hydrogen carbonate solution.
(§3) Serial two-fold dilutions were made from the above solutions.
(§4) One-ml aliquots of each dilution were mixed with 9 ml of Mueller Hinton agar in petri-dishes to make agar plates containing the compound at serially diluted concentrations. After agar hardened, plates were put in an incubator at 37° C. for 1.5-2 hours with the lids slightly open to evaporate acetone off the plates.
(§5) Test organisms were grown for 18 hours at 37° C. in Trypticase Soy broth and diluted in saline to approximately 10^6 colony forming units per ml. A loopful of each cell suspension was applied on the agar plate mentioned above and the plates were incubated for 18 hours at 37° C. before MIC was determined.
(§6) MIC values of the compounds described in Examples 1, 2 and 4 were determined as their sodium salts and the compound described in Example 5 was determined as a free carboxylic acid.

Proteus morganii EP-14 = assay: as above; assay type: cell-based; conditions: Morganella morganii, EP14, Mueller Hinton agar, 18 hours at 37° C., Examples 1, 2, 4 as sodium salts, Example 5 as free acid
Procedure: as §1, §2, §3, §4, §5, §6

[2] = system: Klebsiella pneumoniae EK-6; assay: as above; assay type: cell-based; conditions: EK6, Mueller Hinton agar, 18 hours at 37° C., Examples 1, 2, 4 as sodium salts, Example 5 as free acid
Procedure: as §1, §2, §3, §4, §5, §6

Escherichia coli NIHJ = assay: as above; assay type: cell-based; conditions: Mueller Hinton agar, 18 hours at 37° C., Examples 1, 2, 4 as sodium salts, Example 5 as free acid
Procedure: as §1, §2, §3, §4, §5, §6

[3] = system: Pseudomonas aeruginosa EP-172; assay: as above; assay type: cell-based; conditions: EP172, Mueller Hinton agar, 18 hours at 37° C., Examples 1, 2, 4 as sodium salts, Example 5 as free acid
Procedure: as §1, §2, §3, §4, §5, §6

[4] = system: Serratia marcescens ES-75; assay: as above; assay type: cell-based; conditions: ES75, Mueller Hinton agar, 18 hours at 37° C., Examples 1, 2, 4 as sodium salts, Example 5 as free acid
Procedure: as §1, §2, §3, §4, §5, §6

[5] = acute toxicity (mouse, oral administration); conditions: in vivo

Structure (SMILES): CC(=O)OCC1=C(C(=O)O)N2C(=O)[C@@H](NC(=O)[C@H](N)c3ccccc3)[C@H]2SC1 [Cephaloglycin, cephaloglycin, reference compound]
- MIC [1]: 0.8 µg/mL
- MIC (Proteus morganii EP-14): 25 µg/mL
- MIC [2]: 1.56 µg/mL
- MIC (Escherichia coli NIHJ): 3.13 µg/mL
- MIC [3]: 100 µg/mL
- MIC [4]: 100 µg/mL

Structure (SMILES): CC(=O)OCC1=C(C(=O)O)N2C(=O)[C@@H](NC(=O)[C@H](NC(=O)c3coc4cc(O)c(O)cc4c3=O)c3ccc(O)cc3)[C@H]2SC1 [Example 1, 7β-[D-2-(6,7-Dihydroxychromone-3-carboxamido)-2-(4-hydroxyphenyl)acetamido]-3-acetoxymethyl-3-cephem-4-carboxylic acid]
- LD50 [5]: > 5000 mg/kg
- MIC [1]: 3.13 µg/mL
- MIC (Proteus morganii EP-14): 50 µg/mL
- MIC [2]: 0.2 µg/mL
- MIC (Escherichia coli NIHJ): 3.13 µg/mL
- MIC [3]: 3.13 µg/mL
- MIC [4]: 3.13 µg/mL

Structure (SMILES): CC(=O)OCC1=C(C(=O)O)N2C(=O)[C@@H](NC(=O)[C@H](NC(=O)c3coc4cc(OC(C)=O)c(OC(C)=O)cc4c3=O)c3ccc(O)cc3)[C@H]2SC1 [Example 2, 7β-[D-2-(6,7-Diacetoxychromone-3-carboxamido)-2-(4-hydroxyphenyl)acetamido]-3-acetoxymethyl-3-cephem-4-carboxylic acid]
- LD50 [5]: > 5000 mg/kg
- MIC [1]: 6.25 µg/mL
- MIC (Proteus morganii EP-14): 100 µg/mL
- MIC [2]: 0.2 µg/mL
- MIC (Escherichia coli NIHJ): 12.5 µg/mL
- MIC [3]: 3.13 µg/mL
- MIC [4]: 6.25 µg/mL

Structure (SMILES): CC(=O)OCC1=C(C(=O)O)N2C(=O)[C@@H](NC(=O)[C@H](NC(=O)c3coc4c(O)c(O)ccc4c3=O)c3ccc(O)cc3)[C@H]2SC1 [Example 4, 7β-[D-2-(7,8-Dihydroxychromone-3-carboxamido)-2-(4-hydroxyphenyl)acetamido]-3-acetoxymethyl-3-cephem-4-carboxylic acid]
- MIC [1]: 0.8 µg/mL
- MIC (Proteus morganii EP-14): 100 µg/mL
- MIC [2]: 0.2 µg/mL
- MIC (Escherichia coli NIHJ): 12.5 µg/mL
- MIC [3]: 1.56 µg/mL
- MIC [4]: 100 µg/mL

Structure (SMILES): CC(=O)OCC1=C(C(=O)O)N2C(=O)[C@@H](NC(=O)[C@H](NC(=O)c3coc4c(OC(C)=O)c(OC(C)=O)ccc4c3=O)c3ccc(O)cc3)[C@H]2SC1 [Example 5, 7β-[D-2-(7,8-Diacetoxychromone-3-carboxamido)-2-(4-hydroxyphenyl)acetamido]-3-acetoxymethyl-3-cephem-4-carboxylic acid]
- MIC [1]: 6.25 µg/mL
- MIC (Proteus morganii EP-14): 25 µg/mL
- MIC [2]: 0.4 µg/mL
- MIC (Escherichia coli NIHJ): 3.13 µg/mL
- MIC [3]: 3.13 µg/mL
- MIC [4]: 25 µg/mL
